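Protocol summary: plate cells (96-well), add compound at 5 concentrations, incubate 48 h, interpolate endpoints linearly. Abbreviation: GI50, concentration required for 50% inhibition of growth.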 Activity calls are given as the source filed them. No stated cut-off is given here; in the data, active = GI50 up to about 1.1 µM and inactive = higher.
Tests used:
Assay in all cases: inhibition of tumour cell growth, NCI panel, 48 h
LOX IMVI = tested on: LOX IMVI
SF-268 = tested on: SF-268
HCC 2998 = tested on: HCC 2998
786-0 = tested on: 786-0
U-251 = tested on: U-251
SK-MEL-28 = tested on: SK-MEL-28
SNB-19 = tested on: SNB-19
COLO 205 = tested on: COLO 205
NCI-H460 = tested on: NCI-H460
SK-OV-3 = tested on: SK-OV-3
SF-539 = tested on: SF-539
HCT-116 = tested on: HCT-116
HOP-62 = tested on: HOP-62
NCI-H23 = tested on: NCI-H23
OVCAR-3 = tested on: OVCAR-3
RXF 393 = tested on: RXF 393
K562 = tested on: K562
SF-295 = tested on: SF-295
SW-620 = tested on: SW-620

Compound | GI50 (LOX IMVI) | GI50 (SF-268) | GI50 (HCC 2998) | GI50 (786-0) | GI50 (U-251) | GI50 (SK-MEL-28) | GI50 (SNB-19) | GI50 (COLO 205) | GI50 (NCI-H460) | GI50 (SK-OV-3) | GI50 (SF-539) | GI50 (HCT-116) | GI50 (HOP-62) | GI50 (NCI-H23) | GI50 (OVCAR-3) | GI50 (RXF 393) | GI50 (K562) | GI50 (SF-295) | GI50 (SW-620)
Cc1cc(C)nc(NS(=O)(=O)c2ccc(NC(=O)c3cccc4c(N)c5ccccc5nc34)cc2)n1 | 53.6 µM (inactive) | > 100 µM (inactive) | 67.1 µM (inactive) | > 100 µM (inactive) | 97.5 µM (inactive) | > 100 µM (inactive) | > 100 µM (inactive) | > 100 µM (inactive) | > 100 µM (inactive) | > 100 µM (inactive) | 31.6 µM (inactive) | 90.6 µM (inactive) | > 100 µM (inactive) | > 100 µM (inactive) | > 100 µM (inactive) | > 100 µM (inactive) | 63.8 µM (inactive) | > 100 µM (inactive) | > 100 µM (inactive)
Clc1ccccc1C(n1cc(Br)cn1)n1cc(Br)cn1 | 17 µM (inactive) | > 10 µM (inactive) | > 10 µM (inactive) | > 10 µM (inactive) | 18.5 µM (inactive) | 40.7 µM (inactive) | 27.4 µM (inactive) | – | 14.7 µM (inactive) | > 10 µM (inactive) | > 10 µM (inactive) | 15 µM (inactive) | 25.5 µM (inactive) | 23.1 µM (inactive) | > 10 µM (inactive) | 16.7 µM (inactive) | 19.1 µM (inactive) | 16.2 µM (inactive) | > 10 µM (inactive)
CC(=O)O[C@]1(C)OC(=O)[C@@H](C)N1[N+](=O)[O-] | 72.3 µM (inactive) | – | > 100 µM (inactive) | > 100 µM (inactive) | > 100 µM (inactive) | > 100 µM (inactive) | > 100 µM (inactive) | > 100 µM (inactive) | 39.2 µM (inactive) | > 100 µM (inactive) | > 100 µM (inactive) | > 100 µM (inactive) | > 100 µM (inactive) | > 100 µM (inactive) | > 100 µM (inactive) | > 100 µM (inactive) | > 100 µM (inactive) | > 100 µM (inactive) | > 100 µM (inactive)
c1ccc(C2(c3cc4ccccc4[nH]3)OCCO2)nc1 | > 100 µM (inactive) | > 100 µM (inactive) | > 100 µM (inactive) | > 100 µM (inactive) | > 100 µM (inactive) | > 100 µM (inactive) | > 100 µM (inactive) | > 100 µM (inactive) | > 100 µM (inactive) | > 100 µM (inactive) | > 100 µM (inactive) | > 100 µM (inactive) | > 100 µM (inactive) | > 100 µM (inactive) | > 100 µM (inactive) | > 100 µM (inactive) | – | > 100 µM (inactive) | > 100 µM (inactive)
CC(=O)Nc1ccc2c(c1)C(=O)c1ccccc1-2 | > 100 µM (inactive) | > 100 µM (inactive) | > 100 µM (inactive) | > 100 µM (inactive) | > 100 µM (inactive) | > 100 µM (inactive) | > 100 µM (inactive) | > 100 µM (inactive) | > 100 µM (inactive) | > 100 µM (inactive) | > 100 µM (inactive) | > 100 µM (inactive) | > 100 µM (inactive) | > 100 µM (inactive) | > 100 µM (inactive) | > 100 µM (inactive) | > 100 µM (inactive) | > 100 µM (inactive) | > 100 µM (inactive)
CC(=O)C1CC=C(C)CC1 (centres undefined) | > 100 µM (inactive) | > 100 µM (inactive) | > 100 µM (inactive) | > 100 µM (inactive) | > 100 µM (inactive) | > 100 µM (inactive) | > 100 µM (inactive) | > 100 µM (inactive) | > 100 µM (inactive) | > 100 µM (inactive) | > 100 µM (inactive) | > 100 µM (inactive) | > 100 µM (inactive) | > 100 µM (inactive) | > 100 µM (inactive) | > 100 µM (inactive) | > 100 µM (inactive) | > 100 µM (inactive) | > 100 µM (inactive)
COc1cc(C=O)cc(/C=N/n2c3ccccc3c3ccccc32)c1O | 14.2 µM (inactive) | 4.34 µM (inactive) | 19.3 µM (inactive) | 11.9 µM (inactive) | 9.04 µM (inactive) | 5.83 µM (inactive) | 21.3 µM (inactive) | 18.8 µM (inactive) | 30.5 µM (inactive) | 6.76 µM (inactive) | 4.32 µM (inactive) | 10.9 µM (inactive) | 30.3 µM (inactive) | 39.6 µM (inactive) | 45.2 µM (inactive) | 25 µM (inactive) | 12 µM (inactive) | 3.17 µM (inactive) | 9.73 µM (inactive)
NCCOc1ccc(/C(=C(/Cl)c2ccccc2)c2ccccc2)cc1 | 4.05 µM (inactive) | 13.2 µM (inactive) | 4.34 µM (inactive) | 7.94 µM (inactive) | 10.9 µM (inactive) | 5.66 µM (inactive) | 14.4 µM (inactive) | 1.89 µM (inactive) | 7.14 µM (inactive) | 16.9 µM (inactive) | 15.3 µM (inactive) | 7.19 µM (inactive) | 17.9 µM (inactive) | 16 µM (inactive) | 12.4 µM (inactive) | 4.03 µM (inactive) | 3.32 µM (inactive) | 14.4 µM (inactive) | 4.19 µM (inactive)
Cc1c(/C=N/NC(=O)c2ccc(Cl)cc2)c(=O)n(-c2ccccc2)n1C | > 100 µM (inactive) | > 100 µM (inactive) | > 100 µM (inactive) | > 100 µM (inactive) | > 100 µM (inactive) | > 100 µM (inactive) | > 100 µM (inactive) | > 100 µM (inactive) | > 100 µM (inactive) | > 100 µM (inactive) | > 100 µM (inactive) | > 100 µM (inactive) | > 100 µM (inactive) | > 100 µM (inactive) | > 100 µM (inactive) | > 100 µM (inactive) | > 100 µM (inactive) | > 100 µM (inactive) | > 100 µM (inactive)
CC1=C(C(=O)Nc2ccccc2C)C(c2ccc([N+](=O)[O-])cc2)C(C(=O)Nc2ccccc2C)=C(C)N1 | 43.4 µM (inactive) | 39.1 µM (inactive) | 47.3 µM (inactive) | 53.3 µM (inactive) | > 100 µM (inactive) | 63.4 µM (inactive) | 22.8 µM (inactive) | 29.9 µM (inactive) | 44.9 µM (inactive) | > 100 µM (inactive) | 53.6 µM (inactive) | – | > 100 µM (inactive) | 37.5 µM (inactive) | 40.1 µM (inactive) | 16.4 µM (inactive) | 40.1 µM (inactive) | 58.2 µM (inactive) | 93.3 µM (inactive)
Cc1cc(Cc2cc(C)c(NC(=O)C(=O)C3CCC4=C(SC5C=CC=CC5N4)C3=O)c(C(C)C)c2)cc(C(C)C)c1NC(=O)C(=O)C1CCC2=C(SC3C=CC=CC3N2)C1=O (centres undefined) | 96.6 µM (inactive) | 74.8 µM (inactive) | 30.5 µM (inactive) | > 100 µM (inactive) | 50.1 µM (inactive) | > 100 µM (inactive) | – | 44.6 µM (inactive) | 53.1 µM (inactive) | > 100 µM (inactive) | 12.5 µM (inactive) | 47 µM (inactive) | 94.4 µM (inactive) | 41.4 µM (inactive) | 35 µM (inactive) | 44 µM (inactive) | 55.7 µM (inactive) | 69.7 µM (inactive) | 38 µM (inactive)
COC(=O)C(C)(C)/N=C/N(C)C | 68.2 µM (inactive) | > 100 µM (inactive) | > 100 µM (inactive) | > 100 µM (inactive) | > 100 µM (inactive) | > 100 µM (inactive) | > 100 µM (inactive) | > 100 µM (inactive) | > 100 µM (inactive) | > 100 µM (inactive) | > 100 µM (inactive) | > 100 µM (inactive) | > 100 µM (inactive) | > 100 µM (inactive) | > 100 µM (inactive) | 86.5 µM (inactive) | > 100 µM (inactive) | > 100 µM (inactive) | 28.4 µM (inactive)
COC(=O)C1=C(c2ccc3c(c2)OCO3)O[C@H](c2cc(OC)c(OC)c(OC)c2)[C@H]1COC(C)=O | 8.91 µM (inactive) | 7.5 µM (inactive) | 1.74 µM (inactive) | 4.12 µM (inactive) | 3.48 µM (inactive) | 12.2 µM (inactive) | – | 0.984 µM (active) | 4.3 µM (inactive) | 1.14 µM (inactive) | 1.99 µM (inactive) | 4.55 µM (inactive) | 3.08 µM (inactive) | 2.25 µM (inactive) | 1.19 µM (inactive) | 1.57 µM (inactive) | 3.22 µM (inactive) | 0.282 µM (active) | 3.87 µM (inactive)
CC(C)NC(=O)OCc1c(COC(=O)NC(C)C)c(-c2ccc(Cl)c(Cl)c2)n2c1CCC2 | 46.8 µM (inactive) | 43.5 µM (inactive) | 43.6 µM (inactive) | 20.7 µM (inactive) | 51.3 µM (inactive) | 65 µM (inactive) | 56.5 µM (inactive) | 52.8 µM (inactive) | 36.6 µM (inactive) | 61.4 µM (inactive) | 43.5 µM (inactive) | 51.8 µM (inactive) | 38.5 µM (inactive) | 46.9 µM (inactive) | 54 µM (inactive) | 31.3 µM (inactive) | 46.1 µM (inactive) | 48.1 µM (inactive) | 21 µM (inactive)
CCOC(=O)C1=C(C)N(c2ccccc2)C2=C(C(=O)N(c3ccccc3)C2c2ccccc2)C1c1ccccc1 (centres undefined) | > 100 µM (inactive) | > 100 µM (inactive) | > 100 µM (inactive) | > 100 µM (inactive) | > 100 µM (inactive) | > 100 µM (inactive) | > 100 µM (inactive) | > 100 µM (inactive) | > 100 µM (inactive) | > 100 µM (inactive) | > 100 µM (inactive) | > 100 µM (inactive) | > 100 µM (inactive) | > 100 µM (inactive) | > 100 µM (inactive) | > 100 µM (inactive) | > 100 µM (inactive) | > 100 µM (inactive) | > 100 µM (inactive)

Source: ChEMBL document CHEMBL1201862, “PubChem BioAssay data set” (2004)
